The text below walks through data of US12139508B2, “Steroid derivative regulators, method for preparing the same, and uses thereof” (JIANGSU HANSOH PHARMACEUTICAL GROUP CO., LTD., priority 2018, dated 2024).

Like-named read-outs stand apart in the source and are kept apart here.

A short description of series [1]: Pharmacokinetic assay in Balb/c mice (plasma and brain tissue). It counts as in vivo. The note with it: mouse, po, 5 mg/kg p.o., male Balb/c mice; for AUC(0-t): read-out: Area under curve AUC0-t; for AUC(0-inf): read-out: Area under curve AUC0-∞; for half-life: read-out: Half-life t1/2 (converted); for MRT: read-out: Mean residence time MRT; for Tmax: read-out: Peak time tmax; for Cmax: read-out: Plasma concentration Cmax. As to the method: Balb/c mice were used as test animals. The pharmacokinetic behavior in mice (plasma and brain tissue) of the compounds of Examples 2, 3, 5, 6, 9, 13, 59, 60, 61, 63, 71-74, 81, 103, 130, 134, 135, 137, 138, 140, 141, 143, 145 and 146 orally administered at a dose of 5 mg/kg was studied.
Each group had 24 male Balb/c mice. After an overnight fast, Balb/c mice were administered p.o. with the test compound at an administration dose of 5 mg/kg and an administration volume of 10 mL/kg.
0.2 ml of blood was taken from the heart before administration and at 0, 0.5, 1, 2, 4, 6, 8 and 24 hours after administration. The samples were stored in EDTA-K2 tubes, and centrifuged for 6 minutes at 4° C., 6000 rpm to separate the plasma. The plasma samples were stored at −80° C. The mice were sacrificed with CO2, and the whole brain tissue was taken out, weighed, placed in a 2 mL centrifuge tube and stored at −80° C.
1) 160 μL of acetonitrile was added to 40 μL of the plasma sample for precipitation, and then the mixture was centrifuged for 5-20 minutes at 3500×g.
2) 90 μL of acetonitrile containing the internal standard (100 ng/mL) was added to 30 μL of the plasma and brain homogenate samples for precipitation, and then the mixture was centrifuged for 8 minutes at 13000 rpm.
3) 70 μL of the treated supernatant was taken and added to 70 μL of water, and mixed by vortex for 10 minutes. 20 μL of the mixture was taken to analyze the concentration of the test compound by LC/MS/MS. LC/MS/MS analysis instrument: AB Sciex API 4000 Qtrap.
• Liquid chromatography condition: Shimadzu LC-20AD pump. • Chromatographic column: Agilent ZORBAX™ XDB-C18 (50×2.1 mm, 3.5 μm) (note: Aglient ZORBAX™ is a kind of column used in the reverse HPLC); • Mobile phase: Eluent A was 0.10% formic acid in water, and Eluent B was acetonitrile. • Flow rate: 0.4 mL/min • Elution time: 0-4.0 minutes, the eluent is as follows:
The main parameters of pharmacokinetics were calculated by WinNonlin 6.1.

In another series the target is GABA-A receptor. Kind of series: 35S-TBPS binding assay (GABAA receptor binding ability test). Also on record: species or system Sprague-Dawley rat. Conditions: rat cerebral cortex cell membrane, 5 μM GABA, 2 nM 35S-TBPS; read-out: 35S-TBPS bindng test: IC50 on inhibiting the TBPS binding activity. Put shortly: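 Rat (male Sprague-Dawley) cortical membranes in PBS were preincubated 5 min at 25° C with compound (from 1 μM, 3-fold, 8 points, 1% DMSO), then 5 μM GABA 5 min, then 2 nM ^35S-TBPS for 20 h at 4° C. Filter-bound counts gave % inhibition against DMSO and 10 μM P026-2 controls; IC50 by 4-parameter fit.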

As usually defined, the MRT is a mean duration of stay, worked out from the concentration-time curve. By Tmax is commonly meant the time at which the peak concentration occurs. As usually defined, the IC50 is the point on the concentration scale where inhibition reaches its midpoint. Take `C[C@@]1(O)CC[C@H]2[C@H](CC[C@@H]3[C@@H]2CC[C@@]2(C)[C@H]3[C@H](C3CC3)C[C@@H]2C(=O)Cn2nc(C#N)cc2C#N)C1` [Example 143, 1-(2-((3R,5R,8R,9R,10S,13S,14S,15S,17S)-15-Cyclopropyl-3-hydroxy-3,13-dimethylhexadecahydro-1H-cyclopenta[a]phenanthren-17-yl)-2-oxoethyl)-1H-pyrazole-3,5-dicarbonitrile]: in series [1] (brain tissue), the AUC(0-t) was 8820 ng·h/mL, the AUC(0-inf) amounted to 9220 ng·h/mL, the half-life was 3.95 h and the MRT came out at 7.81 h. Moreover, in series [1] (brain tissue), the time of peak concentration (Tmax) worked out at 2 h and the Cmax was determined as 812 ng/mL. Besides, in series [1] (plasma), the AUC(0-t) came out at 6290 ng·h/mL, the AUC(0-inf) came out at 6490 ng·h/mL, the half-life was 1.7 h and the mean residence time MRT was 3.08 h. Moreover, in series [1] (plasma), the Tmax was 0.5 h and the Cmax was 1650 ng/mL. Besides, the IC50 at GABA-A receptor was 28.5 nM.
Consider `CC[C@@H]1C[C@H](C(=O)Cn2ccnn2)[C@@]2(C)CC[C@H]3[C@@H](CC[C@@H]4C[C@](C)(O)CC[C@@H]43)[C@H]12` [Example 140, 1-((3R,5R,8R,9R,10S,13S,14S,15R,17S)-15-Ethyl-3-hydroxy-3,13-dimethylhexadecahydro-1H-cyclopenta[a]phenanthren-17-yl)-2-(1H-1,2,3-triazol-1-yl)ethan-1-one], for which, in series [1] (brain tissue), the AUC(0-t) came to 4330 ng·h/mL, the AUC(0-inf) is 4540 ng·h/mL, the half-life was 1.21 h and the mean residence time (MRT) was 2.1 h. In series [1] (brain tissue), the Tmax was 0.5 h and the Cmax is 1740 ng/mL. In series [1] (plasma), the AUC(0-t) turned out to be 5980 ng·h/mL, the AUC(0-inf) was found to be 6110 ng·h/mL, the half-life was 1.19 h and the mean residence time (MRT) stood at 2.22 h. In series [1] (plasma), the time to peak (Tmax) worked out at 0.5 h and the Cmax was found to be 2480 ng/mL. Moreover, the half-maximal inhibitory concentration (IC50) at GABA-A receptor was determined as 33.1 nM.
On to `C[C@@]1(O)CC[C@H]2[C@H](CC[C@@H]3[C@@H]2CC[C@@]2(C)[C@H]3[C@@H]3C[C@@H]3[C@@H]2C(=O)Cn2ccc(C(F)(F)F)n2)C1` [Example 6, 1-((2R,4aS,4bR,6aS,7S,7aS,8aR,8bR,8cR,10aR)-2-Hydroxy-2,6a-dimethyloctadecahydrocyclopropa[4,5]cyclopenta[1,2-a]phenanthren-7-yl)-2-(3-(trifluoromethyl)-1H-pyrazol-1-yl)ethan-1-one], for which, in series [1] (brain tissue), the AUC(0-t) is 917 ng·h/mL, the AUC(0-inf) was 964 ng·h/mL, the half-life was 1.9 h and the mean residence time (MRT) was 2.4 h. Also, in series [1] (brain tissue), the time of peak concentration (Tmax) turned out to be 0.5 h and the Cmax was determined as 464 ng/mL. In series [1] (plasma), the AUC(0-t) was 409 ng·h/mL, the AUC(0-inf) is 484 ng·h/mL, the half-life is 3.19 h and the MRT is 4.03 h. For the same compound, in series [1] (plasma), the time to peak (Tmax) stood at 0.5 h and the Cmax is 219 ng/mL. Also, the half-maximal inhibitory concentration (IC50) at GABA-A receptor was 3.1 nM.
For the compound `C[C@@]1(O)CC[C@H]2[C@H](CC[C@@H]3[C@@H]2CC[C@@]2(C)[C@H]3[C@@H]3C[C@@H]3[C@@H]2C(=O)COc2cnc(C(F)(F)F)nc2)C1` [Example 130, 1-((2R,4aS,4bR,6aS,7S,7aS,8aR,8bR,8cR,10aR)-2-Hydroxy-2,6a-dimethyloctadecahydrocyclopropa[4,5]cyclopenta[1,2-a]phenanthren-7-yl)-2-((2-(trifluoromethyl)pyrimidin-5-yl)oxy)ethan-1-one], in series [1] (brain tissue), the AUC(0-t) stood at 2310 ng·h/mL, the AUC(0-inf) was 2630 ng·h/mL, the half-life was 2.49 h and the MRT is 3.88 h. Further, in series [1] (brain tissue), the time to peak (Tmax) worked out at 0.5 h and the Cmax is 563 ng/mL. Moreover, in series [1] (plasma), the AUC(0-t) was found to be 1390 ng·h/mL, the AUC(0-inf) came out at 1560 ng·h/mL, the half-life was 2.21 h and the mean residence time MRT worked out at 3.83 h. Moreover, in series [1] (plasma), the time to peak (Tmax) is 0.5 h and the Cmax stood at 307 ng/mL. For the same compound, the IC50 on GABA-A receptor was determined as 4.2 nM.
Consider `C[C@@H]1C[C@H](C(=O)Cn2ccc(C(F)(F)F)n2)[C@@]2(C)CC[C@H]3[C@@H](CC[C@@H]4C[C@](C)(O)CC[C@@H]43)[C@H]12` [Example 131, 1-((3R,5R,8R,9R,10S,13S,14S,15R,17S)-3-Hydroxy-3,13,15-trimethylhexadecahydro-1H-cyclopenta[a]phenanthren-17-yl)-2-(3-(trifluoromethyl)-1H-pyrazol-1-yl)ethan-1-one], for which the IC50 at GABA-A receptor amounted to 8 nM.
The same measure, in the same setting: under `C[C@@]1(O)CC[C@H]2[C@H](CC[C@@H]3[C@@H]2CC[C@@]2(C)[C@H]3[C@@H]3C[C@@H]3[C@@H]2C(=O)COc2ccc(F)cc2C#N)C1` [Example 126, 5-Fluoro-2-(2-((2R,4aS,4bR,6aS,7S,7aS,8aR,8bR,8cR,10aR)-2-hydroxy-2,6a-dimethyloctadecahydrocyclopropa[4,5]cyclopenta[1,2-a]phenanthren-7-yl)-2-oxoethoxy)benzonitrile] stands 4.9 nM; under `Cc1nn(CC(=O)[C@H]2[C@H]3C[C@H]3[C@H]3[C@@H]4CC[C@@H]5C[C@](C)(O)CC[C@@H]5[C@H]4CC[C@@]32C)cc1C#N` [Example 37A, 1-(2-((2R,4aS,4bR,6aS,7S,7aS,8aR,8bR,8cR,10aR)-2-Hydroxy-2,6a-dimethyloctadecahydrocyclopropa[4,5]cyclopenta[1,2-a]phenanthren-7-yl)-2-oxoethyl)-3-methyl-1H-pyrazole-4-carbonitrile], 15.4 nM; under `C[C@@]1(O)CC[C@H]2[C@H](CC[C@@H]3[C@@H]2CC[C@@]2(C)[C@H]3[C@H](C3CC3)C[C@@H]2C(=O)Cn2ccc(C(F)(F)F)n2)C1` [Example 144, 1-((3R,5R,8R,9R,10S,13S,14S,15S,17S)-15-Cyclopropyl-3-hydroxy-3,13-dimethylhexadecahydro-1H-cyclopenta[a]phenanthren-17-yl)-2-(3-(trifluoromethyl)-1H-pyrazol-1-yl)ethan-1-one], 18.6 nM.
On the same count and under the same terms, under `C[C@@]1(O)CC[C@H]2[C@H](CC[C@@H]3[C@@H]2CC[C@@]2(C)[C@H]3[C@@H]3C[C@@H]3[C@@H]2C(=O)Cn2nc(C#N)cc2C#N)C1` [Example 127, 1-(2-((2R,4aS,4bR,6aS,7S,7aS,8aR,8bR,8cR,10aR)-2-Hydroxy-2,6a-dimethyloctadecahydrocyclopropa[4,5]cyclopenta[1,2-a]phenanthren-7-yl)-2-oxoethyl)-1H-pyrazole-3,5-dicarbonitrile] stands 6.1 nM.
On the same count and under the same terms, under `C[C@@H]1C[C@H](C(=O)Cn2cc(Cl)cn2)[C@@]2(C)CC[C@H]3[C@@H](CC[C@@H]4C[C@](C)(O)CC[C@@H]43)[C@H]12` [Example 91, 2-(4-Chloro-1H-pyrazol-1-yl)-1-((3R,5R,8R,9R,10S,13S,14S,15R,17S)-3-hydroxy-3,13,15-trimethylhexadecahydro-1H-cyclopenta[a]phenanthren-17-yl)ethan-1-one] stands 9.6 nM.
